Test results: patent US4504480A, “Pentacyclic compounds” (Beecham Group p.l.c., priority 1982, dated 1985)

Target: T1, α2-adrenoceptors (Rattus norvegicus, UniProt P22909)
T1 construct: isolated rat-brain synaptic membrane fragments; from tissue; host or cells: rat brain, synaptic membrane fragments
T1 sequence (P22909 1-465): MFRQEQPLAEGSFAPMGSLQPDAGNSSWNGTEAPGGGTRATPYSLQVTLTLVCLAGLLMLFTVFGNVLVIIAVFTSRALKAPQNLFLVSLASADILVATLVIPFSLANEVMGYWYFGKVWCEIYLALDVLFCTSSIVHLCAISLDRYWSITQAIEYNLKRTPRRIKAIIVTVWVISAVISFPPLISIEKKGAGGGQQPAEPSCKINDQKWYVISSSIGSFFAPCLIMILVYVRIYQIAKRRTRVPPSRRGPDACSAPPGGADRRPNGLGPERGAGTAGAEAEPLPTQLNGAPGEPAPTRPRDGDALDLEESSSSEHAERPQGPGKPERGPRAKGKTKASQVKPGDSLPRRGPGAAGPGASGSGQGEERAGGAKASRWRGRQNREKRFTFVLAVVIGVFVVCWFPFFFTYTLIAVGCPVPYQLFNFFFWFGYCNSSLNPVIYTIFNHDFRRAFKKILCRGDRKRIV
Assay: inhibition of [3H]-clonidine binding to isolated rat-brain synaptic membrane fragments
Settings: from IC50 by Cheng-Prusoff equation
Description: Blockade of presynaptic α2 -adrenoceptors on noradrenergic neurones effects an increase in intrasynaptic noradrenaline, and thus in the central nervous system could be expected to have an antidepressant effect. [^3 H]-Clonidine binds to α2 -adrenoceptor sites and inhibition of this binding correlates with the blockade of α2 -adrenoceptors. In vitro inhibition by some of the present compounds of the binding of [^3 H]-clonidine to isolated rat-brain synaptic membrane fragments was therefore determined to provide an indication of antidepressant activity. This was carried out using standard biochemical binding study techniques, by the method of Maggi et al, Eur. J. Pham. 1980, 61, 91. IC50 values were obtained from log [dose] against % inhibition curves; Ki values were determined using the Cheng-Prusoff equation.

CN1CCN2c3ccccc3Cc3cccc4c3[C@@H]2[C@H]1C4 (relative stereo) [Example I, trans-12-Methyl-1,10,11,12,12a,12b-hexahydro-5H-9b,12-diazabenzo[5,6]cyclohepta[1,2,3,4-def]fluorene]
Ki: 88 nM

CN1CCN2c3ccccc3Cc3cccc4c3[C@@H]2[C@H]1CC4 (relative stereo) [Example II, trans-13-methyl-1,2,6,11,12,13,13a,13b-octahydro-10b13-diazabenzo[gh]pleiadene]
Ki: 169 nM
